From patent US20100074920A1 (priority 2006, published 2010)

Tested on: serum antibodies of test subjects Serum 1B-8B
Conditions: sera S1B-S8B; streptavidin immobilized peptide

Substance: Biotin-aminocaproyl-SRPRVRNIP [Peptide 2B]
- binding of serum antibodies (immune response), absorbance at 450 nm: especially effective in binding with certain antibodies
